Entries after “also recorded” stand apart in the source; their conditions may differ. Structures can show the parent of a compound that is named as a salt.

Series [1] concerns Streptozotocin-induced DR model in rat. Nature of the series: Streptozotocin-induced DR model in rat (STZ rat model). The class given is in vivo. To be noted: STZ diabetic rats, vs vehicle. How it is done: B-9 Streptozotocin-Induced DR Model in Rat (STZ Rat Model)
135 male 6-week-old male SD rats (200 to 250 g) were randomized to become diabetic or non-diabetic. Following an overnight fast, SD rats were assigned to become diabetic by receiving a single intraperitoneal injection of streptozotocin (55 mg per kg; Sigma-Aldrich, St. Louis, USA) diluted in 0.1M citrate buffer, pH 4.5. Rats were weighed and their blood glucose levels measured (Accu-check Advantage II Blood Glucose Monitor, Roche Diagnostics, USA). Only rats with blood glucose levels greater than 250 mg/dL were considered diabetic (Li et al. 2002). Insulin was administered three times per week to reduce mortality and promote weight gain (2 to 4 units s.c. Humulin NPH, Eli Lilly and Co., Indianapolis, Ind., USA). The pathological events that occur in the early stages of DR were evaluated. Functional read-out of retinal electrical signal in response to light stimulation “b-wave amplitude (μv)” represents inner retinal function. The retinal function ERG (Electroretinography) was tested 2 months after STZ injection according to the method disclosed in McCulloch et al., 2015 and animals were randomized into subgroups with same severity. The animals received treatment after randomization for 2 months and were terminated then after. […]

Series [2] concerns retinal ischemia reperfusion (I/R) in rat. Nature of the series: Acute changes in rat retinal structure after retinal ischemia reperfusion (I/R), prophylactic settings. The class given is in vivo, male Wistar Unilever rats. Particulars: I/R rats. An excerpt:
B-7 Evaluation of Acute Changes in Rat Retinal Structure after Retinal Ischemia Reperfusion (I/R) Prophylactic Settings
Six male Wistar Unilever rats were used per experimental group. On induction day, rats were anesthetized with an intraperitoneal injection of Rompun® and Ketavet® before the pupils of the right eyes (oculus dextrus, OD) were dilated with Alcain eye drops and in addition treated with Vigamox® eye drops. The left eye (oculus sinister, OS) is covered with Bepanthen® eye cream. Under deep anesthesia, the retina and the optic nerve were examined by optical coherence tomography (OCT) as a baseline measurement. 15 minutes before induction, group 2 received an intravenous (IV) bolus of compound (e.g. example 3, formula I-E-R) (i.v. 3 mg/kg in rat plasma). Then, the anterior chamber was punctured with a 30 G needle. Through a tube, 0.9% NaCl solution was pumped into the anterior chamber with a pressure 120 mm Hg. The pressure is regulated with a blood pressure cuff. The intraocular pressure (IOP) was elevated for 45 min. The procedure was successful as the eyeballs discolored because of vascular obstruction. After 45 min, the needle was removed, eye cream was put on the right eye and the animal could wake up. […]
Functional read-out of retinal electrical signal in response to light stimulation “b-wave amplitude (μv)” represents inner retinal function. […]

With `CC(C)CN1CCN(c2ccc(-c3ccc(Cl)cc3N3CCC[C@@H](n4ncc(C(=O)O)c4C(F)F)C3)cc2)CC1` [Example 3, 1-{1-[4-Chloro-4′-(4-isobutylpiperazin-1-yl)[biphenyl]-2-yl]piperidin-3-yl}-5-(difluoromethyl)-1H-pyrazole-4-carboxylic acid hydrochloride], the “b wave amplitude (ERG, retinal function)” value was “significant higher b wave amplitude compared to vehicle treated animals; also recorded: reduces diabetic induced retinal dysfunction and diabetic retinopathy progression” in series [1] (15 mg/kg oral gavage QD for 2 months, started 2 months after STZ, hydrochloride, 15 mg/kg); “significant higher b wave amplitude compared to vehicle treated animals; also recorded: reduces ischemia induced retinal dysfunction” in series [2] (oral QD from 2 days before to 6 days after induction plus i.v. 3 mg/kg bolus 15 min before induction, day 7 post induction, hydrochloride, 3 mg/kg). Besides, the “diabetic retinopathy disease progression (b wave values)” value in series [1] (oral QD, chronic diabetic retinopathy model) is listed as “prevented disease progression”. The “retinal structure (OCT and histological examination)” value in series [2] (day 7 post ischemic induction) was “preserved retinal structure in both OCT and histological examination”.

The values are drawn from patent publication US20230346777A1, “USE OF SGC ACTIVATORS FOR THE TREATMENT OF OPHTHALMOLOGIC DISEASES” (Bayer Aktiengesellschaft, priority 2020, published 2023).
